Test results from a melting point compilation (Tetko et al.; mined from patent text by program, amines drawn as free bases though some values may be those of a salt).

`Clc1ccc(C2CCNCC2)cc1` gave a melting point of 143 °C. For `Cc1ccc(S(=O)(=O)OCC(O)Cc2c(Cl)cc3c(c2O)CCC3)cc1` (stereo unspecified), the melting point was 125 to 127 °C. Work on `Cc1cc(O)ccc1COCCn1ccnn1` yielded a melting point of 92 to 93 °C. Molecule `N#Cc1ccccc1-c1ccc(CNC(=S)NN)cc1` has a melting point of 163 to 164 °C. For `NC1CCC(CCN2CCN(c3ccccc3)CC2)CC1` (stereo unspecified), the melting point was 65 to 70 °C. With `Cc1nc2ccc3c(c2o1)OC(CN1CC=C(c2c[nH]c4ccc(Cl)cc24)CC1)CO3` (stereo unspecified) the melting point was 144 to 145 °C. For `O=C(NNc1ccc(C=CC(c2cc(Cl)c(Cl)c(Cl)c2)C(F)(F)F)cc1)C1CC1` (stereo unspecified), the melting point was 138 to 140 °C. Work on `C=C(C)C(=O)OCCCCOc1ccc(C(=O)Cl)cc1` yielded a melting point of 30 to 31 °C. `CC(C)(C)[Si](C)(C)Oc1ccc(CON2C(=O)c3ccccc3C2=O)cc1` gave a melting point of 76 to 77 °C. Work on `CC(C)(C)c1cc(-c2nc(CC(=O)O)co2)cc(C(C)(C)C)c1O` yielded a melting point of 166 to 168 °C. With `COC(=O)[C@H]1OC(OC(=O)c2ccc(/C=C(\C)c3ccc4c(c3)C(C)(C)CCC4(C)C)cc2)[C@H](OC(C)=O)[C@@H](OC(C)=O)[C@@H]1OC(C)=O` (stereo partly specified) the melting point was 161 °C. Work on `CNC[C@@H](O)c1cnccn1` yielded a melting point of 78 to 81 °C. Work on `O=c1oc2cc(OCc3nnn[nH]3)cc(OCc3nnn[nH]3)c2c2c1CC(c1ccccc1)CC2` (stereo unspecified) yielded a melting point of 235 to 245 °C. Molecule `O=C(NCC1Cc2cccc(-c3ccc(F)cc3F)c2O1)OCc1ccccc1` (stereo unspecified) has a melting point of 78 to 80 °C. In the case of `O=S1(=O)N=CN(C2CC2)c2cc(Br)cc(C(F)(F)F)c21`, the melting point is reported as 253 to 254 °C. Molecule `CNC(=O)c1ccccc1Nc1nc(Nc2ccc(OC)c3c2N(C)C(=O)CCC3)ncc1Cl` has a melting point of 165 to 167 °C. For `Cc1ccccc1-c1ccc(C(=O)N2Cc3cccn3Cc3ccccc32)cc1C`, the melting point was 145 to 148 °C. In the case of `O=C(O)c1ccc(Sc2ccc(O)cc2)cc1`, the melting point is reported as 196 to 200 °C. For `COC(=O)[C@H](O)[C@@H](NS(=O)(=O)c1ccc([N+](=O)[O-])cc1)c1ccccc1`, the melting point was 187 to 189 °C. Work on `COc1ccc2c3c(c(=O)oc2c1)CN(Cc1ccc([N+](=O)[O-])cc1)CC3` yielded a melting point of 176 to 178 °C. `COC(=O)C(=CC(c1ccccc1)c1ccccc1)C(=O)OC` gave a melting point of 120 to 122 °C. Work on `O=C(O)CCNC(=O)c1cc([N+](=O)[O-])c2ccccc2c1O` yielded a melting point of 254 °C. Molecule `COc1ccc(C(=O)C=CN(C)C)cc1OC` has a melting point of 124 to 125 °C. With `Brc1ccc(Nc2ncc3cc4ccccc4n3n2)cc1` the melting point was 237 to 243 °C. With `CNC(=O)CSC(c1ccccc1)(c1ccccc1)c1ccccc1` the melting point was 200 to 210 °C. `c1ccc(CNCc2n[nH]c(-c3ccc(CN4CCCCCC4)s3)n2)cc1` showed a melting point of 155 to 157 °C. `COc1ccc(-c2ccc3c(C)c(OC)ccc3c2)cc1` showed a melting point of 136 to 138 °C. `CSc1ccc(C(=O)C(=C(N)C(F)(F)F)c2ccc(F)cc2)cc1` showed a melting point of 122 to 124 °C. `Fc1ccc(-c2ccn(C3CC4CCC(C3)N4)c2-c2ccncc2)cc1` (stereo unspecified) gave a melting point of 204 to 205 °C. Work on `CCOC(=O)C(=O)CC(=O)c1cn(Cc2ccc([N+](=O)[O-])cc2)c2ccccc2c1=O` yielded a melting point of 175 to 176 °C. Work on `CCC1(Cl)Cc2cc(OCC(=O)OC)c(Cl)c(Cl)c2C1=O` (stereo unspecified) yielded a melting point of 111 °C. Work on `Nc1nc(NCC2CC2)c2ncn(C3C=CC(CO)C3)c2n1` (stereo unspecified) yielded a melting point of 130 to 131 °C. Molecule `CC(C)(C)OC(=O)N[C@H]1CC[C@H](CCN2CCN(c3cc(C#N)cc(C(F)(F)F)c3)CC2)CC1` has a melting point of 139 to 140 °C. For `CCOC(=O)C1=C(C)NC(c2cscn2)=NC1c1cccc(Cl)c1` (stereo unspecified), the melting point was 105 to 108 °C. In the case of `CCCCOc1nc(N)c2[nH]c(=O)n(CCCNc3cccc(CC(=O)O)c3)c2n1`, the melting point is reported as 247 °C. Work on `N#Cc1ccc(OCCCCCOc2ccc(-c3cc4cc(C#N)ccc4o3)cc2)cc1` yielded a melting point of 163 to 166 °C. With `Cc1cc2c(cc1OCc1ccccc1)OC[C@@H](N1CCC(O)(c3ccc(F)cc3)CC1)[C@H]2O` (relative stereo) the melting point was 201 to 202 °C. `CC(C)N(C(C)C)C(C)CN1C(=O)/C(=N/NC(N)=O)c2ccccc21` (stereo unspecified) gave a melting point of 201 to 204 °C. Molecule `NC(=O)CN1C(=O)OCc2cc(Br)ccc21` has a melting point of 253 to 254 °C. `COc1c(N2CCC(CN)C2)c(F)cc2c(=O)c(C(=O)O)cn(C3CC3)c12` (stereo unspecified) showed a melting point of 198 to 200 °C. `Cc1cc(=O)[nH]nc1-c1ccc2c(c1)CC1(CCN(C3CCC3)CC1)O2` gave a melting point of 243 to 245 °C. Work on `COCn1ccnc1C(O)(c1ccc(C(F)(F)F)cc1)c1ccc(C(F)(F)F)cc1` yielded a melting point of 160 to 161 °C. With `COCC1=Nc2ccccc2C(=O)C1` the melting point was 184 to 185 °C. In the case of `O=c1nc(-c2cccc(SCCCc3ccccc3)n2)sc2ccccc12`, the melting point is reported as 192 to 194 °C. For `Cc1cc2c(cc1C(=O)N=C(N)N)S(=O)(=O)CC2(C)O` (stereo unspecified), the melting point was 243 to 245 °C. In the case of `CC(C)(C)NC(=O)[C@@H]1CCCN1C(=O)[C@@H](O)[C@H](Cc1ccccc1)NC(=O)[C@H](CC(N)=O)NC(=O)COC1CCC(NC(=O)OCc2ccccc2)CC1` (stereo partly specified), the melting point is reported as 109 to 114 °C. `Cc1ccc(NC(=O)c2ccc(C(=O)Nc3ccccc3N)nc2)cc1Nc1nccc(-c2cccnc2)n1` showed a melting point of 150 to 152 °C. `NC(=O)N(O)CCNC(=O)Cc1ccccc1Nc1c(Cl)cccc1Cl` showed a melting point of 187 to 189 °C. `Cn1cncc1-c1cccc(Nc2ccc3ccccc3n2)c1` showed a melting point of 60 to 65 °C. `CON=C(c1nnco1)c1ccccc1COc1cc(C)ccc1C` showed a melting point of 134 to 135 °C. For `Cn1nccc1-c1ccc(-c2cnc3[nH]cc(C(=O)C(C)(C)C)c3n2)cc1`, the melting point was 257 to 258 °C. Work on `N#Cc1cccc2c1C(O)CC2` (stereo unspecified) yielded a melting point of 73 °C. `Cc1c(F)cc(C(C)(C)C)c(O)c1-c1nc2ccc(S(=O)(=O)C(F)(F)F)cc2c(=O)[nH]1` gave a melting point of 257 to 258 °C. Work on `COc1cccc(C2Cc3ccccc3C2=O)c1` (stereo unspecified) yielded a melting point of 144 to 146 °C. `CCCc1nnc2n1-c1sc(CC)cc1C(c1ccccc1Cl)=NC2NC(=O)c1ccc2ccccc2c1` (stereo unspecified) gave a melting point of 226 to 227 °C. `COC(=O)c1cn2ccsc2n1` gave a melting point of 153 to 156 °C. `CC(=O)OC1CCc2c(C3=C(c4cn(C)c5ccccc45)C(=O)OC3=O)c3ccccc3n2C1` (stereo unspecified) gave a melting point of 272 to 275 °C. For `O=C(O)C1=Cc2c(Cl)cc(Cl)cc2OC1C(F)(F)F` (stereo unspecified), the melting point was 190 to 191 °C. In the case of `Cc1cn2cccc(OCc3c(Cl)ccc(S(=O)(=O)N4CCC[C@H]4C(=O)NCCCNC(=O)c4ccc(C#N)cc4)c3Cl)c2n1`, the melting point is reported as 100 to 102 °C. For `Nc1nc(NCCCCCCNS(=O)(=O)c2cccc3ccccc23)nc2ccccc12`, the melting point was 98 to 101 °C. `COC(=O)c1c(O)cc(OCC(O)c2ccc3c(c2)C(C)(C)CCC3(C)C)cc1O` (stereo unspecified) showed a melting point of 127 to 128 °C. For `Cc1c(NC(=O)c2ccc(-c3ccc(C(F)(F)F)cc3)cc2)ccc2cc(CN3CCCC3)cnc12`, the melting point was 220 to 222 °C. `COC(=O)NCCCn1c(-c2ccc(Br)cc2)csc1=Nc1ccccc1` gave a melting point of 132 to 134 °C. `CN1C(=O)C(Cc2ccccc2)Oc2ccc([N+](=O)[O-])cc21` (stereo unspecified) gave a melting point of 166 to 169 °C. In the case of `CNC(=O)c1ccccc1Nc1nc(Nc2ccc3c(c2OC)CCCC(=O)N3CCOC)ncc1Cl`, the melting point is reported as 205 to 207 °C. Work on `N#CCC(O)(c1ccc(Br)cc1)c1cccnc1` (stereo unspecified) yielded a melting point of 158 to 161 °C. With `CCCC1=C(C(=O)O)C(CC)n2ncc(C(=O)OCC)c2N1` (stereo unspecified) the melting point was 160 to 161 °C. `C=CCN(CC=C)Cc1noc(-c2ncn3c2CN(C)C(=O)c2c(Cl)cccc2-3)n1` gave a melting point of 125 to 130 °C. Work on `Nc1cccc2c1CCNC2` yielded a melting point of 153 to 154 °C. In the case of `Cn1nc(-c2cnc3[nH]cc(C(=O)NCC(C)(C)C)c3n2)c2ccc(F)cc21`, the melting point is reported as 294 to 295 °C. In the case of `CCOC(=O)COc1ccc(CN2C(=O)C3(COc4cc5c(cc43)CCO5)c3ccccc32)cc1` (stereo unspecified), the melting point is reported as 158 to 159 °C. For `CCOC1(C)Oc2cccc(OC(=O)NC)c2O1` (stereo unspecified), the melting point was 97 to 98.5 °C. `FC1(F)N=c2cc3c(cc2=N1)OC(Cl)O3` gave a melting point greater than 220 °C. `C[C@]1(COc2ccc(-c3nc(-c4ccc(Cl)cc4)co3)cc2)Cn2cc([N+](=O)[O-])nc2O1` showed a melting point of 249 to 252 °C. For `O=c1ccc(S(=O)(=O)n2ccc3ccccc32)n[nH]1`, the melting point was 169 to 170 °C. In the case of `CCOC(=O)C1=C(COCC(C)=O)NC(C)=C(C(=O)OC)C1c1cccc(Cl)c1Cl` (stereo unspecified), the melting point is reported as 117 to 119 °C. Work on `O=C(NCC12CC3CC(CC(C3)C1)C2)c1cc(-c2ncccc2C(=O)O)ccc1Cl` yielded a melting point of 169 to 172 °C. With `COc1ccc(COc2ccc(/C=C/c3cc(/C=C/c4ccc5cc[nH]c5c4)n[nH]3)c(OC)c2)cc1` the melting point was 211 to 214 °C. `NC(=O)c1ccc(-c2ccc(-c3ccn(C(CC(=O)OCc4ccccc4)C(=O)NC(CO)Cc4ccccc4)c3)cc2)cc1` (stereo unspecified) gave a melting point of 192 to 194 °C. `CC1(C)NC(=O)N(CC(CCS(=O)(=O)c2ccc(-c3ccc(C(F)(F)F)cc3)cc2)N(O)C=O)C1=O` (stereo unspecified) showed a melting point of 125 °C. `CCn1ccc2ncnc(Oc3ccc(NC(=O)Nc4cccc(C(F)(F)F)c4)c(Cl)c3)c21` gave a melting point of 172 to 176 °C. With `C[Si](C)(C)CCCOC1CCN(c2ccc([N+](=O)[O-])cc2)C1` (stereo unspecified) the melting point was 68 °C. With `CC(C)(C)OC(=O)NCCCc1ccccc1C=CC(=O)O` the melting point was 122 to 126 °C. For `O=C(C=Cc1cc([N+](=O)[O-])ccc1Cl)N1CCc2c([nH]c3ccccc23)C1c1ccc2c(c1)OCO2` (stereo unspecified), the melting point was 146 °C. Work on `CCOC(=O)CCCOc1ccc2nc3c(cc2c1)CC(=O)N3` yielded a melting point of 181 °C. Molecule `NC(=O)N(O)Cc1ccc(Oc2ccc(-n3ccnc3)cc2)o1` has a melting point of 155 °C. For `CC1=CC(C)(N)NC=C1` (stereo unspecified), the melting point was 79.5 to 81 °C. `CS(=O)(=O)OCCCc1ccccc1OCc1coc(/C=C/c2ccccc2)n1` gave a melting point of 93 to 94 °C. With `C[Si](C)(C)O[C@H]1C=C(S(=O)(=O)c2ccccc2)C=CCC1` the melting point was 61.9 to 63.8 °C. Work on `CC(=O)n1c2ccc(O)cc2c2c3c(c(-c4ccccc4Cl)cc21)C(=O)NC3=O` yielded a melting point of 258 to 261 °C. `CCC(C(C)=CC(CNC(=O)c1cc(C)n[nH]1)=NO)[N+](=O)[O-]` (stereo unspecified) gave a melting point of 188 to 189 °C. In the case of `CN1C(=O)C2(COc3cc4c(cc32)OCCO4)c2c(N3CCOCC3)cccc21` (stereo unspecified), the melting point is reported as 246 to 249 °C. With `CSc1nc(C#N)c(C#N)nc1SC` the melting point was 139 to 142 °C. Work on `Cn1cc(C2=C(c3c4n(c5ccccc35)CCC(C#N)C4)C(=O)NC2=O)c2ccccc21` (stereo unspecified) yielded a melting point of 312 to 313 °C. `CC1=C([N+](=O)[O-])C(c2cccc(Cl)c2Cl)c2c[nH]nc2N1` (stereo unspecified) showed a melting point greater than 270 °C. `Cc1ccc(-c2[nH]c(-c3cccnc3)nc2C(=O)Nc2nccs2)cc1` showed a melting point greater than 200 °C.
